# Values of other authors in US20220016119A1, “METHODS AND TREATMENTS FOR ERECTILE DYSFUNCTION” (Record Buck Farms Medical Cannabis, LLC, priority 2018, published 2022).
# Conditions: doses of up to 1500 mg/day
structure (smiles),measurement,value
"C=C(C)[C@@H]1CCC(C)=C[C@H]1c1c(O)cc(CCCCC)cc1O [Cannabidiol, cannabidiol]",adverse effects in patients,no significant adverse effects
